Test [1] relates to Xanthomonas oryzae pv. oryzae (Xoo). Briefly: microbe, parasite or virus in culture. The class given is cell-based. The note with it: for inhibition at 50 µg/mL / inhibition at 100 µg/mL / EC50: Xanthomonas oryzae; for inhibition at 50 µg/mL / inhibition at 100 µg/mL: read-out: Antibacterial activity (inhibition rate) against Xoo; for EC50: read-out: EC50 against Xoo; for Antibacterial activity (inhibition rate) against Xoo / EC50 against Xoo: in vitro; for Antibacterial activity (inhibition rate) against Xoo: strain PXO99A, average of three replicates; for EC50 against Xoo: five concentrations 100-6.25 μg/mL.

The test system of test [2] is Xanthomonas axonopodis pv. citri (Xac). Put plainly: microbe, parasite or virus in culture. In kind it is cell-based. The settings on record: for inhibition at 50 µg/mL / inhibition at 100 µg/mL / EC50: Xanthomonas axonopodis; for inhibition at 50 µg/mL / inhibition at 100 µg/mL: read-out: Antibacterial activity (inhibition rate) against Xac; for EC50: read-out: EC50 against Xac.

Values after ≈ are worked out from the molar mass of the structure shown. Values joined by “and” are separate entries in the source; they are usually repeats but may differ in a detail not shown here. Identical values can stand only once.

As a reminder, the inhibition is the percentage by which the read-out fell short of the control. One may read the EC50 as the concentration at which the effect is half-maximal.

As for `CCOP(=O)(OCC)Oc1ccccc1/C=C/C(=O)/C=C/c1ccc(Cl)cc1` [3b], in test [1], the inhibition at 50 µg/mL turned out to be 35 ± 4.4% and the inhibition at 100 µg/mL was 37 ± 2.9%. Besides, in test [2], the inhibition at 50 µg/mL stood at 53 ± 3.6%, the inhibition at 100 µg/mL was 53.1 ± 3.2% and the EC50 was 34.1 µg/mL (≈ 81 µM).
In the case of `COP(=O)(OC)Oc1ccccc1/C=C/C(=O)/C=C/c1cccc(C(F)(F)F)c1` [3p], in test [1], the inhibition at 50 µg/mL turned out to be 21.8 ± 1.5% and the inhibition at 100 µg/mL is 25 ± 3.1%. In test [2], the inhibition at 50 µg/mL came to 11.5 ± 1.8% and the inhibition at 100 µg/mL came to 20.2 ± 0.8%.
On to `CCOP(=O)(OCC)Oc1ccccc1/C=C/C(=O)/C=C/c1ccc(OC)cc1` [3d], for which the inhibition at 50 µg/mL in test [1] was found to be 32.6 ± 2.2%; in test [2], 34.9 ± 1.5%. Moreover, the inhibition at 100 µg/mL came out at 35.7 ± 1.1% in test [1] and 46.4 ± 1.1% in test [2].
As to `CCOP(=O)(OCC)Oc1ccccc1/C=C/C(=O)/C=C/c1cccc([N+](=O)[O-])c1` [3h], in test [1], the inhibition at 50 µg/mL was 78.1 ± 1.4%, the inhibition at 100 µg/mL was 86.5 ± 1.9% and the EC50 was 19.1 µg/mL (≈ 44.3 µM). In test [2], the inhibition at 50 µg/mL is 48.5 ± 4.2% and the inhibition at 100 µg/mL is 54.8 ± 3.8%.
With `CCOP(=O)(OCC)Oc1ccccc1/C=C/C(=O)/C=C/c1ccccc1` [3m], in test [1], the inhibition at 50 µg/mL came to 2.5 ± 5.7% and the inhibition at 100 µg/mL stood at 28.7 ± 9.1%. In addition, in test [2], the inhibition at 50 µg/mL turned out to be 18 ± 2.9% and the inhibition at 100 µg/mL was 27.4 ± 0.6%.
As for `COP(=O)(OC)Oc1ccccc1/C=C/C(=O)/C=C/c1ccccc1` [3l], the inhibition at 50 µg/mL in test [1] turned out to be 16.7 ± 5.3%; in test [2] it was 29.2 ± 4.3%. For the same compound, the results for the inhibition at 100 µg/mL in test [1] and in test [2] were 35.9 ± 2.9% and 49.4 ± 8%, respectively.
On to `COP(=O)(OC)Oc1ccccc1/C=C/C(=O)/C=C/c1cccc(C)c1` [3r], for which the inhibition at 50 µg/mL in test [1] amounted to 21 ± 2.2%; in test [2], 10.3 ± 2.5%. In addition, the inhibition at 100 µg/mL in test [1] turned out to be 42.4 ± 1.4%; in test [2], 20.5 ± 1.2%.
As to `COP(=O)(OC)Oc1ccccc1/C=C/C(=O)/C=C/c1ccccc1Cl` [3e], in test [1], the inhibition at 50 µg/mL stood at 65.3 ± 1.9%, the inhibition at 100 µg/mL stood at 69.4 ± 0.6% and the EC50 was found to be 46 µg/mL (≈ 117 µM). Moreover, in test [2], the inhibition at 50 µg/mL was determined as 67.9 ± 4.3%, the inhibition at 100 µg/mL is 77.6 ± 2.8% and the EC50 amounted to 22.9 µg/mL (≈ 58.3 µM).
With `CCOP(=O)(OCC)Oc1ccccc1/C=C/C(=O)/C=C/c1ccc(Br)cc1` [3o], the inhibition at 50 µg/mL in test [1] amounted to 19.9 ± 3.7%; in test [2], 23 ± 2.7%. Moreover, the inhibition at 100 µg/mL was found to be 31.4 ± 2.2% in test [1] and 28.4 ± 3.4% in test [2].
Take `COP(=O)(OC)Oc1ccccc1/C=C/C(=O)/C=C/c1ccc([N+](=O)[O-])cc1` [3i]: in test [1], the inhibition at 50 µg/mL was 43.9% and the inhibition at 100 µg/mL is 56.6 ± 1.3%. In test [2], the inhibition at 50 µg/mL came to 50.8 ± 4.2% and the inhibition at 100 µg/mL came to 50.9 ± 4.5%.
For the compound `Nc1nnc([S-])s1.Nc1nnc([S-])s1.[Cu+2]` [Thiodiazole-copper, thiodiazole-copper, reference compound], the “Antibacterial activity (inhibition rate) against Xoo” value in test [1] (50 μg/mL) is recorded as 37.2 ± 3.2%; in test [1] (100 μg/mL), 50.2 ± 0.9%. The “EC50 against Xoo” value in test [1] came out at 78.7 µg/mL. Further, in test [2], the “EC50 against Xac” value amounted to 87.9 µg/mL.
`COc1ccc(/C=C/C(=O)/C=C/c2ccccc2OP(=O)(OC)OC)cc1` [3c]: in test [1], the inhibition at 50 µg/mL turned out to be 23.4 ± 0.9% and the inhibition at 100 µg/mL worked out at 25.5 ± 0.9%. In test [2], the inhibition at 50 µg/mL amounted to 53.5 ± 2.5% and the inhibition at 100 µg/mL is 57.5 ± 2.1%.
Regarding `S=c1[nH]nc(NCNc2n[nH]c(=S)s2)s1` [Bismerthiazol, bismerthiazol, reference compound], in test [1] (50 μg/mL), the “Antibacterial activity (inhibition rate) against Xoo” value is 45.2 ± 2.0%. Also, the “Antibacterial activity (inhibition rate) against Xoo” value in test [1] (100 μg/mL) is recorded as 64.9 ± 3.9%. For the same compound, the “EC50 against Xoo” value in test [1] was found to be 58.8 µg/mL (≈ 211 µM). In test [2], the “Antibacterial activity (inhibition rate) against Xac” value was 70.3±2.8% and 54.9 ± 5.5%; the “EC50 against Xac” value was 44.5 µg/mL (≈ 160 µM).
In the case of `COP(=O)(OC)Oc1ccccc1/C=C/C(=O)/C=C/c1ccc(Cl)cc1` [3a, 2-((1E,4E)-5-(4-chlorophenyl)-3-oxopenta-1,4-dien-1-yl)phenyl dimethyl phosphate], in test [1], the inhibition at 50 µg/mL came out at 83.9 ± 2.1%, the inhibition at 100 µg/mL is 85 ± 2.1% and the EC50 is 35.8 µg/mL. Also, in test [2], the inhibition at 50 µg/mL was determined as 50.6 ± 4.6%, the inhibition at 100 µg/mL was determined as 59.7 ± 1.8% and the EC50 was found to be 45 µg/mL.
Regarding `COP(=O)(OC)Oc1ccccc1/C=C/C(=O)/C=C/c1ccc(Br)cc1` [3n], in test [1], the inhibition at 50 µg/mL was 18.8 ± 1.1% and the inhibition at 100 µg/mL amounted to 23.8 ± 5.3%. Further, in test [2], the inhibition at 50 µg/mL worked out at 2.5 ± 0.9% and the inhibition at 100 µg/mL stood at 16.1 ± 3.8%.
On to `CCOP(=O)(OCC)Oc1ccccc1/C=C/C(=O)/C=C/c1ccccc1Cl` [3f], for which, in test [1], the inhibition at 50 µg/mL was 35.7 ± 3.4% and the inhibition at 100 µg/mL was determined as 36.4 ± 3.1%. Also, in test [2], the inhibition at 50 µg/mL amounted to 52.9 ± 2.1% and the inhibition at 100 µg/mL amounted to 53.1 ± 2.1%.
`CCOP(=O)(OCC)Oc1ccccc1/C=C/C(=O)/C=C/c1cccc(C(F)(F)F)c1` [3q]: in test [1], the inhibition at 50 µg/mL came out at 20.3 ± 3.1% and the inhibition at 100 µg/mL turned out to be 31.5 ± 2.1%. Besides, in test [2], the inhibition at 50 µg/mL turned out to be 5.4 ± 2.6% and the inhibition at 100 µg/mL was determined as 25.4 ± 0.5%.
As for `CCOP(=O)(OCC)Oc1ccccc1/C=C/C(=O)/C=C/c1ccc(C)cc1` [3k], in test [1], the inhibition at 50 µg/mL was found to be 39.4 ± 0.4% and the inhibition at 100 µg/mL worked out at 41.5 ± 0.6%. Further, in test [2], the inhibition at 50 µg/mL was found to be 47.7 ± 3.1% and the inhibition at 100 µg/mL was found to be 52.6 ± 2.9%.
With `CCOP(=O)(OCC)Oc1ccccc1/C=C/C(=O)/C=C/c1ccc([N+](=O)[O-])cc1` [3j], in test [1], the inhibition at 50 µg/mL was determined as 81.4 ± 0.9%, the inhibition at 100 µg/mL came out at 85.5 ± 0.8% and the EC50 is 17.7 µg/mL (≈ 41 µM). Moreover, in test [2], the inhibition at 50 µg/mL stood at 52.9 ± 5.4% and the inhibition at 100 µg/mL turned out to be 61.9 ± 1.1%.
With `CCOP(=O)(OCC)Oc1ccccc1/C=C/C(=O)/C=C/c1cccc(C)c1` [3s], the inhibition at 50 µg/mL in test [1] was 12.5 ± 6%; in test [2] it was 8.5 ± 3.8%. Moreover, the figures for the inhibition at 100 µg/mL in test [1] and in test [2] were 29.5 ± 4.8% and 27.4 ± 1.7%, respectively.
